Among the test systems are BT-549; CAKI-1; HCC 2998; HOP-62; HOP-92; HT-29; LOX IMVI; Malme-3M; NCI-H460; NCI-H522; OVCAR-4; PC-3; RPMI-8226; SF-268; SK-MEL-2; SK-OV-3; SNB-75; TK-10; UACC-257; UACC-62.
Holding throughout (assay): NCI-60 cell line screen, 48 h

SMILES strings stand for the structures.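 How tested: cells in 96-well plates exposed to compound for 48 hours at five concentrations. Abbreviation: GI50, concentration required for 50% inhibition of growth.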 The source made the active and inactive calls. Rule as the data show it: active = GI50 up to about 1.1 µM and inactive = higher.

For the molecule `CC(=O)OCC1OC(OC2CC3C(C)(C)C(=O)CC[C@]3(C)C3CC[C@]45C[C@]4(CCC5[C@@H](C)CC(O)C(O)C(C)(C)O)[C@]23C)C(O)C(O)C1O` (some centres undefined), the GI50 in the experiment on BT-549 was 12.9 µM (inactive); with CAKI-1, 17.1 µM (inactive); in the experiment with HCC 2998, 10 µM (inactive); in the experiment on HOP-62, 19.3 µM (inactive); in the experiment with HOP-92 it was 3.18 µM (inactive); in the experiment with HT-29, 4.23 µM (inactive). The GI50 with LOX IMVI is 3.72 µM (inactive); in the experiment on Malme-3M, 14.1 µM (inactive); in the experiment on NCI-H460 it was 13.6 µM (inactive); in the experiment with NCI-H522, 10.6 µM (inactive); in the experiment on OVCAR-4, 12.7 µM (inactive); with PC-3 it was 9.82 µM (inactive). The GI50 with RPMI-8226 is 3.56 µM (inactive); in the experiment on SF-268, 10.1 µM (inactive); with SK-MEL-2 it was 4.93 µM (inactive); with SK-OV-3 it was 15.5 µM (inactive); in the experiment with SNB-75 it was 5.35 µM (inactive); with TK-10, 14.6 µM (inactive). Also, the GI50 in the experiment with UACC-257 is 11.2 µM (inactive); in the experiment on UACC-62, 10.5 µM (inactive).
Turning to `CC(C)=CCC[C@@H](C)C1=C(Nc2ccccc2)C(=O)C(C)=C(O)C1=O`, the GI50 in the experiment with BT-549 is 3.67 µM (inactive); in the experiment with CAKI-1 it was 2.82 µM (inactive); with HCC 2998, 5.92 µM (inactive); in the experiment with HOP-62, 1.81 µM (inactive); in the experiment on HOP-92, 2.87 µM (inactive); with HT-29, 4.16 µM (inactive). For the same molecule, the GI50 is 3.92 µM (inactive) in the experiment on LOX IMVI; 4.2 µM (inactive) in the experiment on Malme-3M; 1.63 µM (inactive) in the experiment with NCI-H460; 3.03 µM (inactive) with NCI-H522; 6.62 µM (inactive) with OVCAR-4; 3.63 µM (inactive) with PC-3. Also, the GI50 with RPMI-8226 is 9.66 µM (inactive); with SF-268, 1.73 µM (inactive); with SK-MEL-2 it was 2.52 µM (inactive); in the experiment on SK-OV-3, 5.58 µM (inactive); with SNB-75, 3.11 µM (inactive); in the experiment on TK-10, 4.29 µM (inactive). Moreover, the GI50 with UACC-257 is 5.53 µM (inactive); in the experiment with UACC-62, 4.03 µM (inactive).
Regarding `CN(CCc1ccc(Br)cc1)CCN1CCCCC1`, the GI50 was 24.8 µM (inactive) in the experiment with BT-549; 43.2 µM (inactive) in the experiment with CAKI-1; 33.7 µM (inactive) in the experiment with HCC 2998; 31.8 µM (inactive) in the experiment on HOP-62; 17.7 µM (inactive) in the experiment with HOP-92; 12.7 µM (inactive) in the experiment with HT-29. Moreover, the GI50 is 28.6 µM (inactive) in the experiment on LOX IMVI; 22.8 µM (inactive) with Malme-3M; 37.9 µM (inactive) in the experiment on NCI-H460; 21.6 µM (inactive) in the experiment with NCI-H522; 54.8 µM (inactive) in the experiment on OVCAR-4; 27.2 µM (inactive) in the experiment with PC-3. Also, the GI50 in the experiment with RPMI-8226 was 62.5 µM (inactive); with SF-268 it was 65.3 µM (inactive); with SK-MEL-2, 24.4 µM (inactive); in the experiment with SK-OV-3 it was 55.8 µM (inactive); in the experiment on SNB-75, 22.3 µM (inactive); in the experiment with TK-10 it was 71.3 µM (inactive). In addition, the GI50 in the experiment with UACC-257 is 36.3 µM (inactive).
Consider `S=c1[nH]nc(Cc2ccccc2)c(=S)[nH]1`, for which the GI50 was 35.2 µM (inactive) in the experiment with BT-549; > 54.8 µM (inactive) in the experiment on CAKI-1; > 45.9 µM (inactive) with HCC 2998; > 75 µM (inactive) with HOP-62; 23.3 µM (inactive) in the experiment on HOP-92; > 51.8 µM (inactive) with HT-29. In addition, the GI50 in the experiment with LOX IMVI is > 52.7 µM (inactive); in the experiment with Malme-3M, > 55.6 µM (inactive); in the experiment with NCI-H460, > 52.5 µM (inactive); in the experiment on NCI-H522, > 51.1 µM (inactive); in the experiment with OVCAR-4, > 60.7 µM (inactive); with PC-3, 24.9 µM (inactive). The GI50 is 50.8 µM (inactive) in the experiment with RPMI-8226; 4.63 µM (inactive) in the experiment with SF-268; > 43.1 µM (inactive) in the experiment with SK-MEL-2; > 81.5 µM (inactive) with SK-OV-3; 23.1 µM (inactive) in the experiment with SNB-75; > 56 µM (inactive) in the experiment on TK-10. Further, the GI50 was > 56.8 µM (inactive) in the experiment with UACC-257 and > 25.9 µM (inactive) in the experiment with UACC-62.
In the case of `CCOC(=O)/C(C(=O)Nc1cccc(C(F)(F)F)c1)=C(/N)N1CCOCC1`, the GI50 in the experiment on BT-549, with CAKI-1, with HCC 2998, with HOP-62, in the experiment on HOP-92 and with HT-29 was > 100 µM (inactive) each time. Further, the GI50 with LOX IMVI, with Malme-3M, in the experiment on NCI-H460, with NCI-H522, in the experiment with OVCAR-4 and with PC-3 was > 100 µM (inactive) in each case. For the same molecule, the GI50 with RPMI-8226, with SF-268, in the experiment on SK-MEL-2, in the experiment on SK-OV-3, in the experiment with SNB-75 and in the experiment on TK-10 was > 100 µM (inactive) each time. In addition, the GI50 in the experiment on UACC-257 and in the experiment with UACC-62 was > 100 µM (inactive) in each case.
On to `CCOc1cc(C=O)c2c(ccc3ccc(OC)c(OC)c32)c1OC`, for which the GI50 with BT-549 is 32.4 µM (inactive); in the experiment on CAKI-1, 93.5 µM (inactive); in the experiment on HCC 2998 it was 83.8 µM (inactive); in the experiment on HOP-92 it was > 100 µM (inactive); in the experiment on HT-29, 37.5 µM (inactive); in the experiment with LOX IMVI it was 32.4 µM (inactive). The GI50 with Malme-3M is 55.7 µM (inactive); in the experiment on NCI-H460 it was 20 µM (inactive); in the experiment on NCI-H522 it was 38.5 µM (inactive); in the experiment on OVCAR-4, 51.1 µM (inactive); in the experiment on PC-3 it was 17.7 µM (inactive); in the experiment on RPMI-8226, 15.5 µM (inactive). Further, the GI50 in the experiment with SF-268 is > 100 µM (inactive); with SK-MEL-2, 36.8 µM (inactive); in the experiment with SK-OV-3 it was > 100 µM (inactive); in the experiment with SNB-75, 36.3 µM (inactive); with TK-10, > 100 µM (inactive); with UACC-257, 59.3 µM (inactive). In addition, the GI50 with UACC-62 was 67.8 µM (inactive).
Consider `Cc1cccc2c1C(=O)C(C1OC(=O)c3ccccc31)C2` (centres undefined), for which the GI50 with BT-549, in the experiment on CAKI-1, in the experiment on HCC 2998, with HOP-62, in the experiment with HOP-92 and with HT-29 was > 100 µM (inactive) throughout. In addition, the GI50 in the experiment on LOX IMVI, in the experiment on Malme-3M, in the experiment with NCI-H460, in the experiment with NCI-H522, in the experiment on OVCAR-4 and in the experiment on PC-3 was > 100 µM (inactive) each time. The GI50 in the experiment with RPMI-8226 was 92.5 µM (inactive); with SF-268, 79.6 µM (inactive); in the experiment on SK-MEL-2, > 100 µM (inactive); with SK-OV-3 it was > 100 µM (inactive); with SNB-75 it was > 100 µM (inactive); in the experiment on TK-10, > 100 µM (inactive). Moreover, the results for the GI50 in the experiment on UACC-257 and with UACC-62 were > 100 µM (inactive) and 45.7 µM (inactive), respectively.
As to `COc1ccc(/C=C2\N=C(N3CCCC(CO)C3)NC2=O)cc1` (centres undefined), the GI50 in the experiment with BT-549, in the experiment with CAKI-1, with HCC 2998, in the experiment on HOP-62, in the experiment on HOP-92 and with HT-29 was > 100 µM (inactive) throughout. The GI50 in the experiment on LOX IMVI, in the experiment on Malme-3M, in the experiment on NCI-H522, in the experiment with OVCAR-4, in the experiment with PC-3 and in the experiment with RPMI-8226 was > 100 µM (inactive) each time. The GI50 with SF-268, with SK-MEL-2, in the experiment with SK-OV-3, in the experiment with SNB-75, with TK-10 and in the experiment with UACC-257 was > 100 µM (inactive) throughout. The GI50 in the experiment with UACC-62 is > 100 µM (inactive).
On to `CC(=O)NC1=C(Sc2ccc(Cl)cc2)C(=O)c2ccccc2C1=O`, for which the GI50 was 4.81 µM (inactive) with BT-549; 3.7 µM (inactive) in the experiment with CAKI-1; 14.7 µM (inactive) in the experiment on HCC 2998; 1.82 µM (inactive) in the experiment with HOP-92; 12.2 µM (inactive) in the experiment with HT-29; 3.55 µM (inactive) in the experiment with LOX IMVI. Moreover, the GI50 with Malme-3M is 2.97 µM (inactive); in the experiment with NCI-H460, 8.34 µM (inactive); in the experiment on NCI-H522, 0.272 µM (active); with OVCAR-4, 1.63 µM (inactive); in the experiment with PC-3 it was 2.77 µM (inactive); in the experiment with RPMI-8226 it was 1.31 µM (inactive). Besides, the GI50 is 2.53 µM (inactive) in the experiment on SF-268; 3.88 µM (inactive) in the experiment with SK-MEL-2; 15.7 µM (inactive) in the experiment with SK-OV-3; 4.42 µM (inactive) in the experiment with TK-10; 5.33 µM (inactive) in the experiment on UACC-257; 2.61 µM (inactive) in the experiment with UACC-62.
For the molecule `O=C1c2cc(-c3ccccc3)cnc2S(=O)(=O)N1c1ccc(Br)cc1`, the GI50 is > 100 µM (inactive) with BT-549; 40.4 µM (inactive) in the experiment on CAKI-1; 17.8 µM (inactive) in the experiment with HCC 2998; 16.8 µM (inactive) in the experiment with HOP-62; 27.1 µM (inactive) in the experiment with HOP-92; > 100 µM (inactive) with HT-29. Also, the GI50 with LOX IMVI is 41.1 µM (inactive); in the experiment with Malme-3M it was 20.3 µM (inactive); in the experiment on NCI-H460 it was 24.3 µM (inactive); in the experiment with NCI-H522, 14.8 µM (inactive); in the experiment on PC-3, 34.4 µM (inactive); in the experiment on RPMI-8226, 21.1 µM (inactive). Further, the GI50 with SF-268 is 33.7 µM (inactive); with SK-MEL-2 it was 96.2 µM (inactive); in the experiment with SK-OV-3, 26.2 µM (inactive); in the experiment on SNB-75 it was 25.1 µM (inactive); in the experiment with TK-10, > 100 µM (inactive); with UACC-257 it was > 100 µM (inactive). Further, the GI50 in the experiment with UACC-62 is 32.8 µM (inactive).

The values above are taken from ChEMBL document CHEMBL1201862, “PubChem BioAssay data set” (2004).
